In patent publication US20240368212A1, “SELECTIVE ISONITRILE INHIBITORS OF CYTOCHROME P450 SUBTYPES” (priority 2021, published 2024):
Entries after “also recorded” stand apart in the source; their conditions may differ. Read-outs that look alike come from different tables or passages of the source.

Legend:
[1] = target: T1, CYP17A1 (Homo sapiens, UniProt P05093); test: Ligand binding assay, UV-visible difference spectra titration; settings: for spectroscopic evidence of binding to CYP17A1 (heme spectral shift): result in words
T1 sequence (P05093 1-508): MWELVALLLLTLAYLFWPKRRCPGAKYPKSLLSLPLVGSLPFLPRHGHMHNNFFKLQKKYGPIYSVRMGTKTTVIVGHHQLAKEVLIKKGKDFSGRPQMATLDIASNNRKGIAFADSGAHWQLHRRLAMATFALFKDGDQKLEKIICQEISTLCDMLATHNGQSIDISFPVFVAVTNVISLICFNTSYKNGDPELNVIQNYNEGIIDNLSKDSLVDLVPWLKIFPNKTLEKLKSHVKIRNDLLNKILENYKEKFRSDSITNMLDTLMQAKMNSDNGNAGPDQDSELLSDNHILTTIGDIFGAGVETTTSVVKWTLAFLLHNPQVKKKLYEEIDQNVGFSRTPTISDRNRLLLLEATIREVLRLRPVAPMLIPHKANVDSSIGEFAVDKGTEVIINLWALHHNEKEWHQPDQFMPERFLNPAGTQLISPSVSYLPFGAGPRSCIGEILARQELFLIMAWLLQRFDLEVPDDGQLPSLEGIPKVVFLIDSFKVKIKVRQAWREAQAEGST
Procedure: Ligand binding assays. (Adapted from DeVore, N M, et al. (2009). Drug Metabolism and Disposition, 37(6), 1319-1327.) Ligand interaction with the heme iron was evaluated by titrating ligands into a cuvette containing purified CYP17A1, CYP2D6, or CYP3A4 and measured using a UV-visible scanning spectrophotometer. […] Ligands dissolved in DMSO were added to the sample cuvette and an equal volume of DMSO to the reference cuvette. Difference spectra were recorded from 300-500 nm after equilibration of enzyme and ligand. Binding to the enzyme was measured as the difference in maximal and minimal absorbance: A387-A419 for pregnanolone and 3-formyl pregnanolone, and A435-A393 for 3-formyl pregnanolone-20-isonitrile with CYP17A1; A434-A414 for 3-formyl pregnanolone-20-isonitrile with CYP3A4 and CYP2D6. […] All data fitting was accomplished using GraphPad Prism 9.

[2] = target: CYP106A2 (Priestia megaterium, UniProt Q06069); test: Optical difference spectrum titration of CYP106A2; format: binding, bacterial; settings: result in words
Source text: FIGS. 3A-3C show the optical difference spectra when various compounds are titrated with CYPs. […] The maximum absorbance was at 430 nm and the trough was at 393 nm. […] The trough was at 418 nm.
Ligand binding assays. […] All data fitting was accomplished using GraphPad Prism 9.

[3] = target: T2, CYP17A1 (Homo sapiens, UniProt P05093); test: Inhibition assay, 17α-hydroxylation of progesterone by CYP17A1; format: biochemical
T2 sequence (P05093 24-508 limits assumed): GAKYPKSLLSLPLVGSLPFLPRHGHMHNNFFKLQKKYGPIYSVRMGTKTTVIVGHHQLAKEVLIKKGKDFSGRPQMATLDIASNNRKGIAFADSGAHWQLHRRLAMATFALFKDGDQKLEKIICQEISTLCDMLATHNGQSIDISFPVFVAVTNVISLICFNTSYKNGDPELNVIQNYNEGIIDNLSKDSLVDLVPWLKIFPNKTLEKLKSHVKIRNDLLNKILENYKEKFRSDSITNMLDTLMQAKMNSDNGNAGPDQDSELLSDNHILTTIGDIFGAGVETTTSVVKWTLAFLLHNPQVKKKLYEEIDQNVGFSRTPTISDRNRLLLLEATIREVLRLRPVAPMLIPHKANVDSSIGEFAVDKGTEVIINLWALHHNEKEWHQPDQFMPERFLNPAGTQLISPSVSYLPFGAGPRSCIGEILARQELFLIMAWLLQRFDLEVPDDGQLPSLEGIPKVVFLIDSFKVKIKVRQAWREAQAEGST
Procedure: (Adapted from DeVore, NM, Scott, EE. (2012). Nature, 482(7383), 116-119.) Metabolic activity of CYP17A1 was evaluated by measuring 17α-hydroxylation of progesterone as detected HPLC with UV detection at 240 nm. A 1:4 ratio of CYP17A1 to recombinant NADPH-cytochrome P450 reductase was mixed and incubated on ice for 20 minutes. […] Reaction vials were warmed to 37° C. for three minutes, then catalysis was initiated by adding NADPH to a final concentration of 1 mM. After 10 minutes, metabolism was quenched by adding 300 μL of 20% trichloroacetic acid and placed on ice. The reaction vials were centrifuged to pellet the precipitated protein, then the supernatant was injected onto a C18 column (Phenomenex, Luna, 50×4.6 mm) for HPLC. The 30-minute HPLC method ran at 0.8 m/min and started with a mobile phase of 60% acetonitrile, 40% water with 0.2% acetic acid for five minutes, increased to 80% acetonitrile over 10 minutes, held at 80% acetonitrile for five minutes, 100% acetonitrile for five minutes, then returned to 60% acetonitrile to prepare for the next sample. Metabolite elution was normalized to β-estradiol as an internal standard. A standard curve of known product concentrations was used to convert normalized area under curve to amount of product produced. […]

CYP106A2, sequence (Q06069 whole entry): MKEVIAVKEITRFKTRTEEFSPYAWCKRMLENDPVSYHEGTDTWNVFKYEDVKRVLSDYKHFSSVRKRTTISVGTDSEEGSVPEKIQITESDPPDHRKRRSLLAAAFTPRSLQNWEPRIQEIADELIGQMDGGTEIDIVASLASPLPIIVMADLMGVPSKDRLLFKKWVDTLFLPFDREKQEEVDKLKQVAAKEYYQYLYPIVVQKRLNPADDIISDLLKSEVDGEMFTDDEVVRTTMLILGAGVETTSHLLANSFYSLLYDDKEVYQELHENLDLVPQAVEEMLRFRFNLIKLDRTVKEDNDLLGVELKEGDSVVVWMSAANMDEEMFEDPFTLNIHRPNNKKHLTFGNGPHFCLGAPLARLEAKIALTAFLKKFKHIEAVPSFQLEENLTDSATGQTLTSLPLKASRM

Row | Molecule | spectroscopic evidence of binding to CYP17A1 (heme spectral shift) [1] | spectroscopic evidence of binding to CYP106A2 (Fe—CN—R bond formation) [2] | spectroscopic evidence of binding to CYP106A2 (Fe—CN—R bond formation) ([2]; listed as 3) | Kd [1] [nM] | IC50 ([3]; CYP17A1 progesterone hydroxylation, 11.5 μM progesterone) [nM] | inhibition of CYP17A1 progesterone hydroxylation ([3]; result in words, FIG. 5B) | Kd ([1]; CYP17A1 0.2 μM, tight binding, only estimates, read-out: Kd) [nM]
1 | 3β-formyl-(R)-(20-isonitrilo)pregnane [20-(R)-16] | binds tightly | no evidence for formation of a Fe—CN—R bonded complex | no evidence of binding |  |  |  | 
2 | [C-]#[N+][C@H](C)[C@H]1CC[C@H]2[C@@H]3CC[C@H]4C[C@@H](OC=O)CC[C@]4(C)[C@H]3CC[C@]12C [Compound 16] | induced the expected heme spectral shift from 417 to 428 nm; also recorded: bound to CYP17A1; also recorded: bind very tightly |  |  | < 100 | 1300 | inhibited | 
3 | C[C@]12CC[C@H](O)CC1=CC[C@@H]1[C@@H]2CC[C@]2(C)C(c3cccnc3)=CC[C@@H]12 [abiraterone, reference compound] |  |  |  |  |  |  | < 100
